Data: ChEMBL document CHEMBL4229357, “1-Aroylindoline-hydroxamic acids as anticancer agents, inhibitors of HSP90 and HDAC” (Eur J Med Chem, 2018)
Activity calls are given as the source filed them. The calls are words filed in the database; no cut-off is given here.

Assays:
[1] = target: T1, Heat shock protein HSP90 (Homo sapiens) (UniProt P07900+P08238); test: Inhibition of HSP90 in human HL60 cells assessed as downregulation of phosphorylated STAT3 expression after 24 hrs by Western blot analysis; type: cell-based
[2] = target: T1, Heat shock protein HSP90 (Homo sapiens); test: Inhibition of HSP90 in human HL60 cells assessed as induction of HSP70 expression after 24 hrs by Western blot analysis; type: cell-based
[3] = target: T1, Heat shock protein HSP90 (Homo sapiens); test: Inhibition of HSP90 in human HL60 cells assessed as downregulation of phosphorylated STAT3 expression at 1 uM by Western blot analysis; type: cell-based; details: TDE = time-dependent effect
[4] = target: T1, Heat shock protein HSP90 (Homo sapiens); test: Inhibition of HSP90 in human HL60 cells assessed as downregulation of phosphorylated Akt expression after 24 hrs by Western blot analysis; type: cell-based
[5] = target: T1, Heat shock protein HSP90 (Homo sapiens); test: Inhibition of HSP90 in human HL60 cells assessed as downregulation of phosphorylated Akt expression at 1 uM by Western blot analysis; type: cell-based; details: TDE = time-dependent effect
[6] = target: T1, Heat shock protein HSP90 (Homo sapiens); test: Inhibition of HSP90 in human HL60 cells assessed as induction of HSP70 expression at 1 uM by Western blot analysis; type: cell-based; details: TDE = time-dependent effect
NCI-H1975 = test: Antiproliferative activity against human NCI-H1975 cells after 48 hrs by sulforhodamine B assay; type: functional; details: NCI-H1975, 48 h
[7] = target: T2, Histone deacetylase (Homo sapiens) (UniProt Q13547+O15379+Q9UBN7+Q92769+Q9UQL6+Q8WUI4+Q9BY41+Q96DB2+P56524+Q9UKV0+Q969S8); test: Inhibition of HDAC in human HL60 cells assessed as upregulation of acetylated histone H3 levels at 1 uM after 24 hrs by Western blot analysis; type: cell-based
[8] = target: T2, Histone deacetylase (Homo sapiens); test: Inhibition of HDAC in human HL60 cells assessed as upregulation of acetyl-alpha-tubulin levels at 1 uM after 24 hrs by Western blot analysis; type: cell-based
A549 = test: Antiproliferative activity against human A549 cells after 48 hrs by sulforhodamine B assay; type: functional
HL-60 = test: Antiproliferative activity against human HL60 cells after 48 hrs by sulforhodamine B assay; type: functional
HCT-116 = test: Antiproliferative activity against human HCT116 cells after 48 hrs by sulforhodamine B assay; type: functional; details: HCT-116, 48 h
Histone deacetylase = type: protein assay, Homo sapiens
[9] = target: Heat shock protein HSP 90-alpha (Homo sapiens, UniProt P07900); test: Inhibition of FITC-geldanamycin binding to HSP90alpha (unknown origin) after 3 hrs by fluorescence polarization assay

CC(C)c1cc(C(=O)N2CCc3cc(NC(=O)CCCCCCC(=O)NO)ccc32)c(O)cc1O
inhibition [1]: Dose-dependent effect | inhibition [2]: Dose-dependent effect | inhibition [3]: Tde | inhibition [4]: Dose-dependent effect | inhibition [5]: Tde | inhibition [6]: Tde

COc1c(C)cnc(Cn2cnc3c(Cl)nc(N)nc32)c1C [BIIB021]
GI50 (NCI-H1975): 380 nM | inhibition [7]: Active | inhibition [8]: Active | GI50 (A549; Homo sapiens, A549, 48 h): 330 nM | GI50 (HL-60; Homo sapiens, HL-60, 48 h): 590 nM | GI50 (HCT-116): 150 nM | IC50 (Histone deacetylase): > 1000 nM

O=C(CCCCCCC(=O)Nc1ccccc1)NO [VORINOSTAT]
GI50 (NCI-H1975): 1410 nM | IC50 [9]: > 1000 nM | GI50 (A549): 1020 nM | GI50 (HL-60): 1740 nM | GI50 (HCT-116): 150 nM
